The subject of one series is in vitro immune systems. Conditions: J. Antibiotics 1987, 40, 1256; cited from earlier work.
Series [1] has as its target T1, 31-O-desmethylFK-506 O-methyltransferase (FKMT) (Streptomyces tacrolimicus, UniProt P74838).
T1 construct: endogenous in cells; host or cells: Native enzyme purified in house from mycelium of Streptomyces MA6858 (ATCC 55098), not recombinant; for the kinetics, purified through the second MonoQ column
T1 sequence (P74838 1-260): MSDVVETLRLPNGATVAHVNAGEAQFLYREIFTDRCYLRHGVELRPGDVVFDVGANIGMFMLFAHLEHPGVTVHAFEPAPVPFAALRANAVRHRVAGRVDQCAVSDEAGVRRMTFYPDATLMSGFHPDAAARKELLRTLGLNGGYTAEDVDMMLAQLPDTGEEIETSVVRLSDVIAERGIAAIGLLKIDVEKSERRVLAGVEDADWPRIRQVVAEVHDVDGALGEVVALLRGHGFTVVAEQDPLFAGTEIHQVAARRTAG
The experiment in a line: FKMT O-methyltransferase assay / kinetic analysis. The series is classed as biochemical, Streptomyces sp. MA6858. To be noted: substrate A as variable, above 50 uM; fixed SAM 220 μM. How it is done:
(§1) This enzyme, is SAM dependent and has requirement for Mg^+2 with optimum concentration of 4 mM. […] The temperature effect on the methylation reaction was examined at 0°, 22°, 24°, 34°, 37°, and 44° C. The optimum temperature for the reaction was determined to be at 34° C. Above this temperature there was a problem with substrate decomposition. Under the established incubation condition in which 31 uM of substrate A and 220 uM of SAM were used, the rate of the methylation reaction was linear up to 35 min with protein concentration up to 100 ug.
(§2) For the kinetic studies, a preparation of the FKMT enzyme which had been purified through the second MonoQ column chromatography was used. Under conditions for the initial velocity measurement, apparent Km and Vmax were determined for 31-O-desmethyFK-506 (substrate A) at one saturating concentration of SAM ([…]). […]
(§3) The assay was carried out in 1 ml. mixture containing 0.025 mM 31-desmethylFK-506, 4 mM MgSO4 and different quantities of the enzyme source in 50 mM phosphate buffer, pH 7.5. […] The plastic sheet was developed in chloroform:methanol (9:1) and area showing standard FK-506 under UV-light was cut and the radioactivity in the cut-strip was measured and the amount of the product formed was calculated.

Substrate in series [2]: C=CC[C@@H]1/C=C(\C)C[C@H](C)C[C@H](OC)[C@H]2O[C@@](O)(C(=O)C(=O)N3CCCC[C@H]3C(=O)O[C@H](/C(C)=C/[C@@H]3CC[C@@H](O)[C@H](O)C3)[C@H](C)[C@@H](O)CC1=O)[C@H](C)C[C@@H]2OC
The experiment in a line: FKMT O-methyltransferase assay / kinetic analysis. In kind it is biochemical, Streptomyces sp. MA6858. To be noted: other: FKMT purified through second MonoQ column, initial velocity, pH 7.5. How it is done: as §1, §2, §3

`C=CC[C@@H]1/C=C(\C)C[C@H](C)C[C@H](OC)[C@H]2O[C@@](O)(C(=O)C(=O)N3CCCC[C@H]3C(=O)O[C@H](/C(C)=C/[C@@H]3CC[C@@H](O)[C@H](OC)C3)[C@H](C)[C@@H](O)CC1=O)[C@H](C)C[C@@H]2OC` [FR-900506, 17-allyl-1,14-dihydroxy-12-[2'-(4"-hydroxy-3"-methoxycyclohexyl)-1'-methylvinyl]-23,25-dimethoxy-13,19,21,27-tetramethyl-11,28-dioxa-4-azatricyclo-[22.3.1.0^4,9]-octacos-18-ene-2,3,10,16-tetraone]: in the series on in vitro immune systems, the “effectiveness relative to cyclosporin in the suppression of in vitro immune systems” value is listed as 100 times.
Turning to `C=CC[C@@H]1/C=C(\C)C[C@H](C)C[C@H](OC)[C@H]2O[C@@](O)(C(=O)C(=O)N3CCCC[C@H]3C(=O)O[C@H](/C(C)=C/[C@@H]3CC[C@@H](O)[C@H](O)C3)[C@H](C)[C@@H](O)CC1=O)[C@H](C)C[C@@H]2OC` [31-O-desmethyFK-506], in series [1], the substrate inhibition entry is on record as “no substrate inhibition”.

B1: 31-O-desmethylFK-506 O-methyltransferase (FKMT) (Streptomyces tacrolimicus) (protein)
chain: MSDVVETLRLPNGATVAHVNAGEAQFLYREIFTDRCYLRHGVELRPGDVVFDVGANIGMFMLFAHLEHPGVTVHAFEPAPVPFAALRANAVRHRVAGRVDQCAVSDEAGVRRMTFYPDATLMSGFHPDAAARKELLRTLGLNGGYTAEDVDMMLAQLPDTGEEIETSVVRLSDVIAERGIAAIGLLKIDVEKSERRVLAGVEDADWPRIRQVVAEVHDVDGALGEVVALLRGHGFTVVAEQDPLFAGTEIHQVAARRTAG
notes: Washed mycelium was used for the preparation of the cell-free extract; endogenous in cells; host or cells: Native enzyme purified in house from mycelium of Streptomyces MA6858 (ATCC 55098), not recombinant; for the kinetics, purified through the second MonoQ column
For the molecule B1, the Michaelis-Menten constant (Km) in series [2] (saturating SAM (220 uM)) is 23.21 µM. Moreover, in series [2] (saturating SAM (220 mM as printed)), the Vmax stood at 2.33 nmol/mg/min.

By Km is commonly meant the substrate concentration at which the rate is half of its maximum. As a reminder, the Vmax is the rate approached at saturating substrate.

(Values after US5264355A, “Methlating enzyme from streptomyces MA6858” (Merck & Co., Inc., priority 1992, dated 1993).)
